Test results from the NIST ThermoML archive (doi:10.1021/je800110r).

Settings: 313.14 K, Liquid, Vibrating tube method

CCCCCCCCCC [decane]
Settings | mass density [kg/m3]
24173 kPa | 733.5
24196 kPa | 733.5
24223 kPa | 733.4
24245 kPa | 733.5
24268 kPa | 733.6
24304 kPa | 733.6
24331 kPa | 733.6
24351 kPa | 733.6
24391 kPa | 733.7
24420 kPa | 733.7
24455 kPa | 733.7
24491 kPa | 733.7
24527 kPa | 733.7
24559 kPa | 733.8
24591 kPa | 733.7
24632 kPa | 733.9
24668 kPa | 733.9
24704 kPa | 733.9
24729 kPa | 733.9
24758 kPa | 734
24787 kPa | 733.9
24824 kPa | 733.9
24854 kPa | 734
24889 kPa | 734
24918 kPa | 734.1
24952 kPa | 734
24983 kPa | 734
25018 kPa | 734.1
25049 kPa | 734.2
25080 kPa | 734.1
25107 kPa | 734.2
25129 kPa | 734.2
25161 kPa | 734.2
25188 kPa | 734.2
25215 kPa | 734.2
25255 kPa | 734.3
25287 kPa | 734.3
25323 kPa | 734.3
25351 kPa | 734.4
25387 kPa | 734.3
25415 kPa | 734.3
25452 kPa | 734.5
25489 kPa | 734.4
25558 kPa | 734.6
25618 kPa | 734.5
25650 kPa | 734.6
25684 kPa | 734.6
25712 kPa | 734.5
25750 kPa | 734.5
25778 kPa | 734.6
25811 kPa | 734.6
25840 kPa | 734.7
25878 kPa | 734.8
27095 kPa | 735.5
27127 kPa | 735.5
27155 kPa | 735.6
27178 kPa | 735.5
27206 kPa | 735.6
27239 kPa | 735.7
27267 kPa | 735.7
27295 kPa | 735.5
27328 kPa | 735.7
27370 kPa | 735.7
27403 kPa | 735.7
27432 kPa | 735.8
27465 kPa | 735.8
27498 kPa | 735.7
27527 kPa | 735.8
27560 kPa | 735.9
27599 kPa | 735.8
27627 kPa | 735.8
27661 kPa | 735.9
27685 kPa | 735.8
27728 kPa | 735.9
27767 kPa | 736
27811 kPa | 736
27850 kPa | 735.9
27898 kPa | 736.1
27932 kPa | 736.2
29093 kPa | 736.8
29131 kPa | 736.9
29195 kPa | 737
29243 kPa | 737
29286 kPa | 736.9
29330 kPa | 737.1
29369 kPa | 737.1
29414 kPa | 737
29452 kPa | 737.1
29496 kPa | 737.2
29524 kPa | 737.1
29568 kPa | 737.2
29611 kPa | 737.2
29645 kPa | 737.3
29684 kPa | 737.2
29729 kPa | 737.2
29763 kPa | 737.3
29809 kPa | 737.3
29845 kPa | 737.3
29878 kPa | 737.3
29923 kPa | 737.4
29963 kPa | 737.5
30003 kPa | 737.5
30049 kPa | 737.5
30089 kPa | 737.6
30124 kPa | 737.6
30171 kPa | 737.5
30212 kPa | 737.5
30248 kPa | 737.6
30281 kPa | 737.7
30319 kPa | 737.6
30352 kPa | 737.7
30401 kPa | 737.8
30433 kPa | 737.7
30466 kPa | 737.8
30504 kPa | 737.8
30542 kPa | 737.8
30575 kPa | 737.8
30614 kPa | 737.9
31015 kPa | 738.1
31049 kPa | 738
31124 kPa | 738.2
31165 kPa | 738.2
31205 kPa | 738.3
31251 kPa | 738.3
31303 kPa | 738.3
31332 kPa | 738.3
31379 kPa | 738.3
32818 kPa | 739.4
32847 kPa | 739.2
32891 kPa | 739.4
32920 kPa | 739.3
32965 kPa | 739.4
33007 kPa | 739.5
33037 kPa | 739.5
33079 kPa | 739.5
33103 kPa | 739.6
33135 kPa | 739.5
